Laboratory results published in patent publication US12540131B2 (Merck Sharp & Dohme LLC, priority 2019, dated 2026).

Biological target: GST tagged truncated human mutant G2019S LRRK2 (Homo sapiens (Human), UniProt Q5S007, G2019S)
Experiment: LRRK2 Km ATP LanthaScreen Assay
Assay type: biochemical
Details: G2019S LRRK2, 134 μM ATP (Km ATP), mean values
In short: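 Enzyme (GST-tagged, truncated) was preincubated with compound for 15 min at RT in 50 mM Tris pH 8.5, 10 mM MgCl2, 0.01% Brij-35, 1 mM EGTA, 2 mM DTT and 0.05 mM orthovanadate. Fluorescein-LRRKtide and 134 μM ATP (Km) were then added for 90 min. EDTA and Tb-anti-pERM antibody stopped the reaction; the TR-FRET 520/495 ratio gave 4-parameter IC50s, reported as mean pIC50.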

GST tagged truncated human mutant G2019S LRRK2, sequence (Q5S007 970-2527 G2019S): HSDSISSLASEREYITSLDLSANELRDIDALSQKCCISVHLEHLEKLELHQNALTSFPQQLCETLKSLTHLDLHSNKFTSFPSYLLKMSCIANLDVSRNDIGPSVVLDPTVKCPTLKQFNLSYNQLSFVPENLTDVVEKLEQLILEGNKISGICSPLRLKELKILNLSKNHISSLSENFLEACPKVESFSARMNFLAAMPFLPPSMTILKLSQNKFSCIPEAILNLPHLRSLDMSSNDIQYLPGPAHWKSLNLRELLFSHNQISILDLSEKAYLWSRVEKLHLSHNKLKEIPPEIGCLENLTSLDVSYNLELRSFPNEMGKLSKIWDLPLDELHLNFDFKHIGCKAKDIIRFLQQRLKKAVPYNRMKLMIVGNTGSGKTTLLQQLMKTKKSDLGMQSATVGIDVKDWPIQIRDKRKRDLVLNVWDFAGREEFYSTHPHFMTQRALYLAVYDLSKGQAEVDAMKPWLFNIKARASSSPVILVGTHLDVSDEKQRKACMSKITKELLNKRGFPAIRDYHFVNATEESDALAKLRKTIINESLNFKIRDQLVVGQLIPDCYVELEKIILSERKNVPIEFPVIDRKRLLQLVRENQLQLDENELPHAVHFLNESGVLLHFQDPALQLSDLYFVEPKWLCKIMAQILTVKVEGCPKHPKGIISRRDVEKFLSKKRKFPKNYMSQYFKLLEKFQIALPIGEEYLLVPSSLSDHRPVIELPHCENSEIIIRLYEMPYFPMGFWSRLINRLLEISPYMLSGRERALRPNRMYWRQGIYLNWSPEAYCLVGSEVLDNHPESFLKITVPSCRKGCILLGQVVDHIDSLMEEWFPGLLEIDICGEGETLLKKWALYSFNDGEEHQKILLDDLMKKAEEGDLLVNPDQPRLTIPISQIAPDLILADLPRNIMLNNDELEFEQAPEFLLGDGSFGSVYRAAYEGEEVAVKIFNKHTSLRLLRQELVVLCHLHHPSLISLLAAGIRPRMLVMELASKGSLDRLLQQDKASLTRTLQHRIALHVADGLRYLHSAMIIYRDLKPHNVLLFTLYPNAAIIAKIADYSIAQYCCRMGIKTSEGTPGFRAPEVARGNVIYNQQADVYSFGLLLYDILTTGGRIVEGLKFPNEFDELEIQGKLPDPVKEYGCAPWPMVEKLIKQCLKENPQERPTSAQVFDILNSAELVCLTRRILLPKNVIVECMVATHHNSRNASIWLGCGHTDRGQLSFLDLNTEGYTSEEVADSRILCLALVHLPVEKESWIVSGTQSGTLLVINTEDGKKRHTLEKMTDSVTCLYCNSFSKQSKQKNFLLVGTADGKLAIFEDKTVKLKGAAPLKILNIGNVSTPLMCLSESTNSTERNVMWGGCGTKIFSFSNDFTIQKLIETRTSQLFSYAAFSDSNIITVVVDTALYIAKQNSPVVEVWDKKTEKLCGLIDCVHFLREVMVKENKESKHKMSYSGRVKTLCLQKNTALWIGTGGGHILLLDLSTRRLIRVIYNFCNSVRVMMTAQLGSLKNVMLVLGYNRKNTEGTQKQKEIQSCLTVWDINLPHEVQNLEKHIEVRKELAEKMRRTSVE

Row | SMILES | LRRK2 pIC50
1 | Cn1ncc(Nc2ncc3cc(Cl)c([C@@H]4CCN([C@H]5COC[C@H]5O)C[C@H]4F)cc3n2)c1Cl (single isomer, unassigned) [Ex-4.185, (3S,4S)(3S,4S) or (3S,4S)(3R,4R) or (3R,4R)(3S,4S) or (3R,4R)(3R,4R) 4-(4-{6-chloro-2-[(5-chloro-1-methyl-1H-pyrazol-4-yl)amino]quinazolin-7-yl}-3-fluoropiperidin-1-yl)oxolan-3-ol] | 9.17
2 | Cn1ncc(Nc2ncc3cc(Cl)c([C@@H]4CCN([C@@H]5COC[C@@H]5O)C[C@H]4F)cc3n2)c1Cl (single isomer, unassigned) [Ex-4.186, (3S,4S)(3S,4S) or (3S,4S)(3R,4R) or (3R,4R)(3S,4S) or (3R,4R)(3R,4R) 4-(4-{6-chloro-2-[(5-chloro-1-methyl-1H-pyrazol-4-yl)amino]quinazolin-7-yl}-3-fluoropiperidin-1-yl)oxolan-3-ol] | 7.95
3 | Cc1c(Nc2ncc3cc(Cl)c(C4CCN(C(=O)[C@@H](C)O)C4)cc3n2)cnn1C1CC1 (single isomer, unassigned) [Ex-4.187, (2R)(3S) or (2R)(3R) 1-(3-{6-chloro-2-[(1-cyclopropyl-5-methyl-1H-pyrazol-4-yl)amino]quinazolin-7-yl}pyrrolidin-1-yl)-2-hydroxypropan-1-one] | 8.54
4 | Cn1ncc(Nc2ncc3cc(Cl)c([C@H]4CCN([C@H]5COC[C@H]5O)C[C@@H]4F)cc3n2)c1Cl (single isomer, unassigned) [Ex-4.188, (3S,4S)(3S,4S) or (3S,4S)(3R,4R) or (3R,4R)(3S,4S) or (3R,4R)(3R,4R) 4-(4-{6-chloro-2-[(5-chloro-1-methyl-1H-pyrazol-4-yl)amino]quinazolin-7-yl}-3-fluoropiperidin-1-yl)oxolan-3-ol] | 7.83
5 | Cn1ncc(Nc2ncc3cc(Cl)c([C@H]4CCN([C@@H]5COC[C@@H]5O)C[C@@H]4F)cc3n2)c1Cl (single isomer, unassigned) [Ex-4.189, (3S,4S)(3S,4S) or (3S,4S)(3R,4R) or (3R,4R)(3S,4S) or (3R,4R)(3R,4R) 4-(4-{6-chloro-2-[(5-chloro-1-methyl-1H-pyrazol-4-yl)amino]quinazolin-7-yl}-3-fluoropiperidin-1-yl)oxolan-3-ol] | >9.20
6 | Cc1c(Nc2ncc3cc(Cl)c(C4CCN(C(=O)[C@H](C)O)C4)cc3n2)cnn1C1CC1 (single isomer, unassigned) [Ex-4.190, (2S)(3S) or (2S)(3R) 1-(3-{6-chloro-2-[(1-cyclopropyl-5-methyl-1H-pyrazol-4-yl)amino]quinazolin-7-yl}pyrrolidin-1-yl)-2-hydroxypropan-1-one] | 8.73
7 | C[C@@]1(N2CC[C@@H](c3cc4nc(Nc5cnn(C6CC6(F)F)c5Cl)ncc4cc3Cl)[C@H](F)C2)COC[C@@H]1O (single isomer, unassigned) [Ex-4.230, (R)(3S,4S)(3S,4S) or (R)(3S,4S)(3R,4R) or (R)(3R,4R)(3S,4S) or (R)(3R,4R)(3R,4R) or (S)(3S,4S)(3S,4S) or (S)(3S,4S)(3R,4R) or (S)(3R,4R)(3S,4S) or (S)(3R,4R)(3R,4R) 4-(4-(6-chloro-2-((5-chloro-1-(2,2-difluorocyclopropyl)-1H-pyrazol-4-yl)amino)quinazolin-7-yl)-3-fluoropiperidin-1-yl)-4-methyltetrahydrofuran-3-ol] | 9.13
8 | O[C@H]1COC[C@H]1N1CC[C@@H](c2cc3nc(Nc4cnn(C56CC(F)(C5)C6)c4Cl)ncc3cc2Cl)[C@H](F)C1 (single isomer, unassigned) [Ex-4.231, (3S,4S)(3S,4S) or (3S,4S)(3R,4R) or (3R,4R)(3S,4S) or (3R,4R)(3R,4R) 4-[4-(6-chloro-2-{[5-chloro-1-(3-fluorobicyclo[1.1.1]pentan-1-yl)-1H-pyrazol-4-yl]amino}quinazolin-7-yl)-3-fluoropiperidin-1-yl]oxolan-3-ol] | >9.20
9 | Cc1cc2cnc(Nc3cnn(C45CC(F)(C4)C5)c3Cl)nc2cc1[C@@H]1CCN([C@@H]2COC[C@@H]2O)C[C@H]1F (single isomer, unassigned) [Ex-4.232, (3S,4S)(3S,4S) or (3S,4S)(3R,4R) or (3R,4R)(3S,4S) or (3R,4R)(3R,4R) 4-[4-(2-{[5-chloro-1-(3-fluorobicyclo[1.1.1]pentan-1-yl)-1H-pyrazol-4-yl]amino}-6-methylquinazolin-7-yl)-3-fluoropiperidin-1-yl]oxolan-3-ol] | >9.20
10 | Cn1ncc(Nc2ncc3cc(Cl)c([C@@H]4CCN([C@]5(C)COC[C@@H]5O)C[C@H]4F)cc3n2)c1Cl (single isomer, unassigned) [Ex-4.233, (3S,4S)(3S,4S) or (3S,4S)(3R,4R) or (3R,4R)(3S,4S) or (3R,4R)(3R,4R) 4-(4-{6-chloro-2-[(5-chloro-1-methyl-1H-pyrazol-4-yl)amino]quinazolin-7-yl}-3-fluoropiperidin-1-yl)-4-methyloxolan-3-ol] | >9.20

Same assay, conditions: G2019S LRRK2, 134 μM ATP (Km ATP), mean values; read-out: LRRK2 pIC50 (converted)

Row | SMILES | IC50 [nM]
11 | Cc1c(Nc2ncc3cc(Cl)c(C4CCN(CC(O)CC(F)(F)F)CC4)cc3n2)cnn1C1CC1 (single isomer, unassigned) [Ex-4.191, (S) or (R) 1-(4-{6-chloro-2-[(1-cyclopropyl-5-methyl-1H-pyrazol-4-yl)amino]quinazolin-7-yl}piperidin-1-yl)-4,4,4-trifluorobutan-2-ol] | < 0.631
12 | Cc1c(Nc2ncc3cc(Cl)c(C4CCN(CC(O)CC(F)(F)F)CC4)cc3n2)cnn1C1CC1 (single isomer, unassigned) [Ex-4.192, (S) or (R) 1-(4-{6-chloro-2-[(1-cyclopropyl-5-methyl-1H-pyrazol-4-yl)amino]quinazolin-7-yl}piperidin-1-yl)-4,4,4-trifluorobutan-2-ol] | 1.74
13 | Cc1c(Nc2ncc3cc(Cl)c(C4CCN(CC(O)Cc5ccccc5)CC4)cc3n2)cnn1C1CC1 (single isomer, unassigned) [Ex-4.218, (S) or (R) 1-(4-{6-chloro-2-[(1-cyclopropyl-5-methyl-1H-pyrazol-4-yl)amino]quinazolin-7-yl}piperidin-1-yl)-3-phenylpropan-2-ol] | 13.8
14 | Cc1c(Nc2ncc3cc(Cl)c(C4CCN(CC(O)Cc5ccccc5)CC4)cc3n2)cnn1C1CC1 (single isomer, unassigned) [Ex-4.219, (S) or (R) 1-(4-{6-chloro-2-[(1-cyclopropyl-5-methyl-1H-pyrazol-4-yl)amino]quinazolin-7-yl}piperidin-1-yl)-3-phenylpropan-2-ol] | 4.68
15 | Cc1c(Nc2ncc3cc(Cl)c(C4CCN(CC(O)c5ccc(C#N)cc5)CC4)cc3n2)cnn1C1CC1 (single isomer, unassigned) [Ex-4.220, (S) or (R) 4-[2-(4-{6-chloro-2-[(1-cyclopropyl-5-methyl-1H-pyrazol-4-yl)amino]quinazolin-7-yl}piperidin-1-yl)-1-hydroxyethyl]benzonitrile] | 6.17
16 | Cc1c(Nc2ncc3cc(Cl)c(C4CCN(CC(O)CN5CCOC5=O)CC4)cc3n2)cnn1C1CC1 (single isomer, unassigned) [Ex-4.221, (S) or (R) 3-[3-(4-{6-chloro-2-[(1-cyclopropyl-5-methyl-1H-pyrazol-4-yl)amino]quinazolin-7-yl}piperidin-1-yl)-2-hydroxypropyl]-1,3-oxazolidin-2-one] | < 0.631
17 | Cc1c(Nc2ncc3cc(Cl)c(C4CCN(CC(C)(O)c5ccccc5)CC4)cc3n2)cnn1C1CC1 (single isomer, unassigned) [Ex-4.223, (S) or (R) 1-(4-{6-chloro-2-[(1-cyclopropyl-5-methyl-1H-pyrazol-4-yl)amino]quinazolin-7-yl}piperidin-1-yl)-2-phenylpropan-2-ol] | 2.45
18 | Cc1c(Nc2ncc3cc(Cl)c(C4CCN(CC(O)c5ccc(Cl)cc5)CC4)cc3n2)cnn1C1CC1 (single isomer, unassigned) [Ex-4.224, (S) or (R) 2-(4-{6-chloro-2-[(1-cyclopropyl-5-methyl-1H-pyrazol-4-yl)amino]quinazolin-7-yl}piperidin-1-yl)-1-(4-chlorophenyl)ethan-1-ol] | 13.8
19 | Cc1c(Nc2ncc3cc(Cl)c(C4CCN(CC(O)c5ccc(Cl)cc5)CC4)cc3n2)cnn1C1CC1 (single isomer, unassigned) [Ex-4.225, (S) or (R) 2-(4-{6-chloro-2-[(1-cyclopropyl-5-methyl-1H-pyrazol-4-yl)amino]quinazolin-7-yl}piperidin-1-yl)-1-(4-chlorophenyl)ethan-1-ol] | 21.4
20 | Cc1c(Nc2ncc3cc(Cl)c(C4CCN(CC(O)c5ccc(C#N)cc5)CC4)cc3n2)cnn1C1CC1 (single isomer, unassigned) [Ex-4.226, (S) or (R) 4-[2-(4-{6-chloro-2-[(1-cyclopropyl-5-methyl-1H-pyrazol-4-yl)amino]quinazolin-7-yl}piperidin-1-yl)-1-hydroxyethyl]benzonitrile] | 3.72
21 | Cc1c(Nc2ncc3cc(Cl)c(C4CCN(CC(O)CN5CCOCC5)CC4)cc3n2)cnn1C1CC1 (single isomer, unassigned) [Ex-4.227, (S) or (R) 1-(4-{6-chloro-2-[(1-cyclopropyl-5-methyl-1H-pyrazol-4-yl)amino]quinazolin-7-yl}piperidin-1-yl)-3-(morpholin-4-yl)propan-2-ol] | < 0.631
22 | Cc1c(Nc2ncc3cc(Cl)c(C4CCN(CC(O)CN5CCOCC5)CC4)cc3n2)cnn1C1CC1 (single isomer, unassigned) [Ex-4.228, (S) or (R) 1-(4-{6-chloro-2-[(1-cyclopropyl-5-methyl-1H-pyrazol-4-yl)amino]quinazolin-7-yl}piperidin-1-yl)-3-(morpholin-4-yl)propan-2-ol] | 1.55
